In the CheMixHub drug solubility set:

Experiment: xn = mol fraction of the nth substance listed, in the solute-free solvent

COc1cc2c(cc1OC)-c1cc3ccc(OC)c(OC)c3c[n+]1CC2.[Cl-] + O + CC(O)CO
solubility (g/100 g solution)
Settings	283.15 K	288.15 K	293.15 K	298.15 K	303.15 K	308.15 K	313.15 K	318.15 K	323.15 K	328.15 K
x2 = 0.3194	0.0156	0.0224	0.0316	0.0473	0.0678	0.0953	0.132	0.184	0.251	0.339
x2 = 0.5135	0.0475	0.0664	0.0917	0.133	0.186	0.256	0.347	0.47	0.626	0.826
x2 = 0.6441	0.104	0.142	0.193	0.274	0.376	0.505	0.672	0.891	1.17	1.51
x2 = 0.7379	0.183	0.245	0.329	0.457	0.614	0.811	1.06	1.38	1.78	2.26
x2 = 0.8085	0.279	0.368	0.512	0.702	0.905	1.16	1.5	1.92	2.41	3
x2 = 0.8636	0.395	0.513	0.673	0.9	1.21	1.57	1.97	2.46	3.04	3.73
x2 = 0.9079	0.537	0.688	0.893	1.17	1.55	1.96	2.44	3	3.69	4.46
x2 = 0.9441	0.72	0.971	1.23	1.57	1.95	2.41	2.97	3.63	4.39	5.26
x2 = 0.9744	0.947	1.18	1.5	1.9	2.41	2.97	3.61	4.32	5.17	6.09
